Test results from US20210330611A1, “THERAPY FOR NEUROLOGICAL DISEASES/DISORDERS” (priority 2020, published 2021).
Counter-ions that a name gives are not always drawn. Like-named read-outs stand apart in the source and are kept apart here.

Experiments:
[1] = test system: fibrin-induced microglia activation; assay: Image-based assay of fibrin-induced microglia activation (HTS and dose response); type: cell-based, rat; details: Rattus norvegicus, Microglia, read-out: Fibrin % inhibition
[2] = test system: LPS-induced microglia activation; assay: Image-based assay of LPS-induced microglia activation (HTS and dose response); type: cell-based, rat; details: Rattus norvegicus, Microglia, read-out: LPS % inhibition
[3] = test system: fibrin- and LPS-induced microglia activation; assay: cells; type: cell-based, rat
primary rat microglia [4] = assay: Cell toxicity (dead cells, size <150 μm2) in LPS assay
primary rat microglia [5] = assay: Cell toxicity (dead cells, size <150 μm2) in coated fibrin (cFib) assay;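 further: share of dead cells sized under 150 µm2 at 10 µM in fibrin-stimulated microglia HTS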
[6] = primary microglia HTS, 10 μM, fibrin-stimulated, cell size >800 μm^2 as marker of activation
[7] = primary microglia HTS, 10 μM, LPS-stimulated, cell size >800 μm^2 as marker of activation
[8] = HTS of 1907 compounds, quadrant by fibrin and LPS inhibition
[9] = primary microglia HTS, 10 μM, LPS assay, cell size <150 μm^2 as marker of toxicity
[10] = primary microglia HTS, 10 μM, fibrin assay, cell size <150 μm^2 as marker of toxicity
[11] = primary microglia HTS, fibrin stimulation, activation = cell size >800 μm2
[12] = 48 h, primary microglia HTS, LPS stimulation, activation = cell size >800 μm2
[13] = quadrant by fibrin and LPS inhibition in HTS of 1907 compounds
[14] = primary microglia HTS, LPS stimulation, toxicity = cell size <150 μm2
[15] = primary microglia HTS, fibrin stimulation, toxicity = cell size <150 μm2
[16] = primary microglia HTS, fibrin stimulation, increased cell size (>800 μm^2) as marker of activation
[17] = 48 h, primary microglia HTS, LPS stimulation, increased cell size (>800 μm^2) as marker of activation
[18] = primary microglia HTS, LPS stimulation, decreased size (<150 μm^2) as marker of toxicity
[19] = primary microglia HTS, fibrin stimulation, decreased size (<150 μm^2) as marker of toxicity
[20] = primary HTS, 10 μM, fibrin-stimulated primary microglia
[21] = primary HTS, 10 μM, LPS-stimulated primary microglia
[22] = primary HTS, 10 μM, LPS assay, dead cells size <150 μm2
[23] = primary HTS, 10 μM, fibrin assay, dead cells size <150 μm2

## C=CC[C@@H]1/C=C(\C)C[C@H](C)C[C@H](OC)[C@H]2O[C@@](O)(C(=O)C(=O)N3CCCC[C@H]3C(=O)O[C@H](/C(C)=C/[C@@H]3CC[C@@H](O)[C@H](OC)C3)[C@H](C)[C@@H](O)CC1=O)[C@H](C)C[C@@H]2OC [Tacrolimus]
[1]; [6]
  inhibition at 10 µM: 27%
[2]; [7]
  inhibition at 10 µM: 14%
[3]; [8]
  Quadrant (FIG. 5b): Q4
Primary rat microglia [4]; [9]
  LPS % cell toxicity: 0%
Primary rat microglia [5]; [10]
  Fibrin % cell toxicity: 1%

## O=C(O[C@H]1C[C@H]2CC[C@@H](C1)[N+]21CCCC1)C(O)(c1ccccc1)c1ccccc1 [Trospium Chloride]
[1]; [6]
  inhibition at 10 µM: -39%
[2]; [7]
  inhibition at 10 µM: 9%
[3]; [8]
  Quadrant (FIG. 5b): Q4
Primary rat microglia [4]; [9]
  LPS % cell toxicity: 1%
Primary rat microglia [5]; [10]
  Fibrin % cell toxicity: 0%

## COC(=O)C1=C(C)NC(C)=C(C(=O)OC(C)C)C1c1cccc2nonc12 (stereo not drawn) [Isradipine]
[1]; [11]
  inhibition at 10 µM: 9%
[2]; [12]
  inhibition at 10 µM: 2%
[3]; [13]
  Quadrant (FIG. 5b): Q4
Primary rat microglia [4]; [14]
  LPS % cell toxicity: 0%
Primary rat microglia [5]; [15]
  Fibrin % cell toxicity: 1%

## CC(=O)[C@H]1CC[C@H]2[C@@H]3C[C@H](C)C4=CC(=O)CC[C@]4(C)[C@H]3[C@@H](O)C[C@]12C [Medrysone]
[1]; [16]
  inhibition at 10 µM: 111%
[2]; [17]
  inhibition at 10 µM: 87%
[3]; [13]
  Quadrant (FIG. 5b): Q2
Primary rat microglia [4]; [18]
  LPS % cell toxicity: 4%
Primary rat microglia [5]; [19]
  Fibrin % cell toxicity: 4%

## C=C1/C(=C\C=C2/CCC[C@]3(C)[C@@H]([C@H](C)CCCC(C)(C)O)CC[C@@H]23)C[C@@H](O)C[C@@H]1O [Calcitriol]
[1]; [20]
  inhibition at 10 µM: -46%
[2]; [21]
  inhibition at 10 µM: 0%
[3]; primary HTS, 10 μM
  Quadrant (FIG. 5b): Q4
Primary rat microglia [4]; [22]
  LPS % cell toxicity: 1%
Primary rat microglia [5]; [23]
  Fibrin % cell toxicity: 0%

## Oc1ccc(Cl)c2cccnc12 [Cloxyquin]
[1]; [20]
  inhibition at 10 µM: -4%
[2]; [21]
  inhibition at 10 µM: 18%
[3]; primary HTS, 10 μM
  Quadrant (FIG. 5b): Q4
Primary rat microglia [4]; [22]
  LPS % cell toxicity: 0%
Primary rat microglia [5]; [23]
  Fibrin % cell toxicity: 0%

## CO[C@H]1C[C@H](O[C@H]2[C@H](C)[C@@H](O[C@@H]3O[C@H](C)C[C@H](N(C)C)[C@H]3O)[C@@H](C)C[C@@]3(CO3)C(=O)[C@H](C)[C@@H](O)[C@@H](C)[C@@H](C)OC(=O)[C@@H]2C)O[C@@H](C)[C@@H]1O [Oleandomycin Phosphate]
[1]; [16]
  inhibition at 10 µM: -9%
[2]; [17]
  inhibition at 10 µM: 16%
[3]; [13]
  Quadrant (FIG. 5b): Q4
Primary rat microglia [4]; [18]
  LPS % cell toxicity: 0%
Primary rat microglia [5]; [19]
  Fibrin % cell toxicity: 1%

## CC(=O)OCC(=O)[C@@]12OC3(CCCC3)O[C@@H]1C[C@H]1[C@@H]3CCC4=CC(=O)C=C[C@]4(C)[C@@]3(F)[C@@H](O)C[C@@]12C [Amcinonide]
[1]; [16]
  inhibition at 10 µM: 112%
[2]; [17]
  inhibition at 10 µM: 119%
[3]; [13]
  Quadrant (FIG. 5b): Q2
Primary rat microglia [4]; [18]
  LPS % cell toxicity: 6%
Primary rat microglia [5]; [19]
  Fibrin % cell toxicity: 7%

## CC#CCC(C)[C@H](O)/C=C/[C@@H]1[C@H]2C/C(=C/CCCC(=O)O)C[C@H]2C[C@H]1O (stereo partly drawn) [Iloprost]
[1]; [11]
  inhibition at 10 µM: 23%
[2]; [12]
  inhibition at 10 µM: -1%
[3]; [13]
  Quadrant (FIG. 5b): Q4
Primary rat microglia [4]; [14]
  LPS % cell toxicity: 0%
Primary rat microglia [5]; [15]
  Fibrin % cell toxicity: 1%

## Cc1cc(C(C)(C)C)c(O)c(C)c1CC1=NCCN1 [Oxymetazoline]
[1]; [16]
  inhibition at 10 µM: -13%
[2]; [17]
  inhibition at 10 µM: 20%
[3]; [13]
  Quadrant (FIG. 5b): Q4
Primary rat microglia [4]; [18]
  LPS % cell toxicity: 0%
Primary rat microglia [5]; [19]
  Fibrin % cell toxicity: 1%

## CCOC(=O)NNc1nncc2ccccc12 [Todralazine Hydrochloride]
[1]; [6]
  inhibition at 10 µM: 0%
[2]; [7]
  inhibition at 10 µM: 19%
[3]; [8]
  Quadrant (FIG. 5b): Q4
Primary rat microglia [4]; [9]
  LPS % cell toxicity: 0%
Primary rat microglia [5]; [10]
  Fibrin % cell toxicity: 1%

## CN1CCOC(c2ccccc2)c2ccccc2C1 (stereo not drawn) [Nefopam]
[1]; [16]
  inhibition at 10 µM: -15%
[2]; [17]
  inhibition at 10 µM: 3%
[3]; [13]
  Quadrant (FIG. 5b): Q4
Primary rat microglia [4]; [18]
  LPS % cell toxicity: 0%
Primary rat microglia [5]; [19]
  Fibrin % cell toxicity: 0%

## CC(N)CCCC(C)(C)O (stereo not drawn) [Heptaminol Hydrochloride]
[1]; [11]
  inhibition at 10 µM: -19%
[2]; [12]
  inhibition at 10 µM: 13%
[3]; [13]
  Quadrant (FIG. 5b): Q4
Primary rat microglia [4]; [14]
  LPS % cell toxicity: 0%
Primary rat microglia [5]; [15]
  Fibrin % cell toxicity: 1%

## CC#CCn1c(N2CCC[C@@H](N)C2)nc2c1c(=O)n(Cc1nc(C)c3ccccc3n1)c(=O)n2C [Linagliptin]
[1]; [11]
  inhibition at 10 µM: 2%
[2]; [12]
  inhibition at 10 µM: 14%
[3]; [13]
  Quadrant (FIG. 5b): Q4
Primary rat microglia [4]; [14]
  LPS % cell toxicity: 1%
Primary rat microglia [5]; [15]
  Fibrin % cell toxicity: 1%

## CCCNC(C)(C)COC(=O)c1ccccc1 [Meprylcaine Hydrochloride]
[1]; [16]
  inhibition at 10 µM: -10%
[2]; [17]
  inhibition at 10 µM: 7%
[3]; [13]
  Quadrant (FIG. 5b): Q4
Primary rat microglia [4]; [18]
  LPS % cell toxicity: 0%
Primary rat microglia [5]; [19]
  Fibrin % cell toxicity: 0%
